Tests used:
Experiment in all cases: Cu(II)-VBIDA affinity for the tag (Table 1)
Format in all cases: binding
Settings in all cases: r^2 ≈ 0.98
[1] = biological target: green fluorescent protein (GFP) variant GFP2, tag MEFHSVGMH, SEQ ID NO: 3
Text: (§1) In this figure the kD data is given in millimolar not micromolar units.

[2] = biological target: green fluorescent protein (GFP) variant GFP29, tag MEFHHSLVH, SEQ ID NO: 12
Text: as §1

[3] = biological target: green fluorescent protein (GFP), n-GFP (native, N-terminus MEFELGT, SEQ ID NO: 1)
Text: as §1

[4] = biological target: green fluorescent protein (GFP) variant GFP28, tag MEFHITGHH, SEQ ID NO: 11
Text: as §1

[5] = biological target: green fluorescent protein (GFP) variant GFP12, tag MEFHSVGLH, SEQ ID NO: 6
Text: as §1

[6] = biological target: green fluorescent protein (GFP) variant GFP24, tag MEFHLRARH, SEQ ID NO: 7
Text: as §1

[7] = biological target: green fluorescent protein (GFP) variant GFP25, tag MEFHRPMRH, SEQ ID NO: 8
Text: as §1
(§2) These values are suitably low for such tags to be used in a separation process with binding of target at high enough affinity to allow for ease of washing and recovery.

[8] = biological target: green fluorescent protein (GFP) variant GFP30, tag MEFHAHHLH, SEQ ID NO: 13
Text: as §1, §2

[9] = biological target: green fluorescent protein (GFP), 6His-GFP, tag […], SEQ ID NO: 14
Text: as §1, §2

[10] = biological target: green fluorescent protein (GFP) variant GFP27, tag MEFHWVARH, SEQ ID NO: 10
Text: as §1, §2

## C=Cc1ccc(CN(CC(=O)O)CC(=O)O)cc1.[Cu+2] [Cu(II)-VBIDA, N-(4-vinyl)-benzyl iminodiacetic acid]
[1]
  Kd: 1200 µM
[2]
  Kd: 100 µM
[3]
  Kd: 1680 µM
[4]
  Kd: 110 µM
[5]
  Kd: 200 µM
[6]
  Kd: 150 µM
[7]
  Kd: 140 µM
[8]
  Kd: 90 µM
[9]
  Kd: 70 µM
[10]
  Kd: 120 µM
